Experimental data taken from US20120202701A1, “AN ANTIBODY-GLYCAN COMPLEX TARGETING THE DISIALYL CORE II AND SIALYL LEWIS X STRUCTURES, AND USES THEREOF INVOLVING ANALYSIS OF STEM CELLS OR CANCER CELLS” (GLYKOS FINLAND OY, priority 2009, published 2012).

Assays:
mAb CSLEX = assay: Glycan microarray analysis (Consortium for Functional Glycomics, printed array version 4.0), glycan binding of mAb CSLEX; conditions: mAb CSLEX at 50 μg/ml; average RFU of 6 replicates after removal of highest and lowest values
Protocol: (§1) mAb CHO-131 was purchased from R&D Systems (MAB996). mAb CSLEX was purchased form BD Biosciences (551344). Glycan microarray analysis was carried out by the Consortium for Functional Glycomics. Glycan microarrays were printed as described (Blixt 2004). Version 4.0 of the printed glycan array was used for analysis. Binding analysis was performed at 50 μg/ml of antibody. Data are reported as average RFU of 6 replicates after removal of highest and lowest values.

mAb CHO-131 = assay: Glycan microarray analysis (Consortium for Functional Glycomics, printed array version 4.0), glycan binding of mAb CHO-131; conditions: for RFU: mAb CHO-131 at 50 μg/ml, average RFU of 6 replicates after removal of highest and lowest values; for binding to CHO-131 antibody, in words: glycan microarray, as described
Protocol: as §1

| Structure (SMILES) | RFU (mAb CSLEX) | RFU (mAb CHO-131) | binding to CHO-131 antibody, in words (mAb CHO-131) |
| --- | --- | --- | --- |
| CC(=O)NC1C(OCCCN)OC(CO)C(OC2OC(COS(=O)(=O)O)C(O)C(OC3(C(=O)O)CC(O)C(NC(C)=O)C(C(O)C(O)CO)O3)C2O)C1O (stereo not shown) [compound 43] | 12653 RFU | 22706 RFU |  |
| CC(=O)N[C@H]1[C@H](O[C@@H]2[C@H](O[C@]3(C(=O)O)C[C@H](O)[C@@H](NC(C)=O)[C@H]([C@H](O)[C@@H](CO)O[C@]4(C(=O)O)C[C@H](O)[C@@H](NC(C)=O)[C@H]([C@H](O)[C@@H](CO)O[C@]5(C(=O)O)C[C@H](O)[C@@H](NC(C)=O)[C@H]([C@H](O)[C@@H](CO)O[C@]6(C(=O)O)C[C@H](O)[C@@H](NC(C)=O)[C@H]([C@H](O)[C@H](O)CO)O6)O5)O4)O3)[C@@H](O)[C@H](O[C@H]3[C@H](O)[C@@H](O)[C@H](OCCN)O[C@@H]3CO)O[C@@H]2CO)O[C@H](CO)[C@H](O)[C@@H]1O [compound 215] | 53 RFU |  |  |
| CC(=O)NC1C(O)CC(OC2C(O)C(COS(=O)(=O)O)OC(OC3C(CO)OC(OCCCN)C(NC(C)=O)C3OC3OC(C)C(O)C(O)C3O)C2O)(C(=O)O)OC1C(O)C(O)CO (stereo not shown) [compound 220] | 22795 RFU | 36255 RFU |  |
| CC(=O)NC1C(O)CC(OC2C(O)C(CO)OC(OC3C(CO)OC(OC4C(O)C(CO)OC(OC5C(CO)OC(OC6C(O)C(CO)OC(OC7C(CO)OC(OCCN)C(NC(C)=O)C7OC7OC(C)C(O)C(O)C7O)C6O)C(NC(C)=O)C5OC5OC(C)C(O)C(O)C5O)C4O)C(NC(C)=O)C3OC3OC(C)C(O)C(O)C3O)C2O)(C(=O)O)OC1C(O)C(O)CO (stereo not shown) [compound 242] | 31104 RFU | 29505 RFU |  |
| CC(=O)NC1C(O)CC(OC2C(O)C(CO)OC(OC3C(CO)OC(OCCN)C(NC(C)=O)C3OC3OC(C)C(O)C(O)C3O)C2O)(C(=O)O)OC1C(O)C(O)CO (stereo not shown) [compound 243] | 13988 RFU | 20068 RFU | somewhat weaker binding |
| CC(=O)NC1C(O)CC(OC2C(O)C(CO)OC(OC3C(CO)OC(OCCCN)C(NC(C)=O)C3OC3OC(C)C(O)C(O)C3O)C2O)(C(=O)O)OC1C(O)C(O)CO (stereo not shown) [compound 244] | 19491 RFU | 34336 RFU | ligand for the antibody |
| CC(=O)NC1C(O)CC(OC2C(O)C(CO)OC(OC3C(CO)OC(OC4C(O)C(CO)OC(OCCCN)C4O)C(NC(C)=O)C3OC3OC(C)C(O)C(O)C3O)C2O)(C(=O)O)OC1C(O)C(O)CO (stereo not shown) [compound 245] | 22997 RFU | 33335 RFU | third best ligand structure |
| CC(=O)NC1C(OCCCN)OC(CO)C(OC2OC(CO)C(O)C(OC3OC(CO)C(OC4OC(CO)C(O)C(OC5(C(=O)O)CC(O)C(NC(C)=O)C(C(O)C(O)CO)O5)C4O)C(OC4OC(C)C(O)C(O)C4O)C3NC(C)=O)C2O)C1O (stereo not shown) [compound 246] | 27193 RFU | 24587 RFU |  |
| CC(=O)N[C@H]1[C@H](OCCN)O[C@H](CO)[C@@H](O[C@@H]2O[C@H](CO[C@]3(C(=O)O)C[C@H](O)[C@@H](NC(C)=O)[C@H]([C@H](O)[C@H](O)CO)O3)[C@H](O)[C@H](O)[C@H]2O)[C@@H]1O [compound 257] | 424 RFU |  |  |

Other lines, results leading:

| RFU (mAb CSLEX) | RFU (mAb CHO-131) | binding to CHO-131 antibody, in words (mAb CHO-131) | Structure (SMILES) |
| --- | --- | --- | --- |
| 45 RFU |  |  | CC(=O)N[C@H]1[C@H]([C@H](O)[C@H](O)CO)O[C@@](OC[C@H]2O[C@@H](O[C@H]3[C@H](O)[C@@H](O)[C@H](OCCN)O[C@@H]3CO)[C@H](O)[C@@H](O)[C@H]2O)(C(=O)O)C[C@@H]1O [compound 261] |
| 29 RFU |  |  | CC(=O)N[C@H]1[C@H](O[C@H]2[C@@H](O)[C@@H](CO)O[C@@H](O[C@@H]3[C@@H](NC(C)=O)[C@H](OCCN)O[C@H](CO)[C@H]3O[C@@H]3O[C@@H](C)[C@@H](O)[C@@H](O)[C@@H]3O)[C@@H]2O)O[C@H](CO)[C@@H](O[C@@H]2O[C@@H](C)[C@@H](O)[C@@H](O)[C@@H]2O)[C@@H]1O[C@@H]1O[C@H](CO)[C@H](O)[C@H](O)[C@H]1O [compound 266] |
| 29 RFU |  |  | CC(=O)NC1C(OCCCN)OC(COC2(C(=O)O)CC(O)C(NC(C)=O)C(C(O)C(O)CO)O2)C(O)C1O (stereo not shown) [compound 267] |
| 4766 RFU | 9521 RFU |  | CC(=O)NC1C(OCCN)OC(CO)C(OC2OC(CO)C(O)C(OC3(C(=O)O)CC(O)C(NC(=O)CO)C(C(O)C(O)CO)O3)C2O)C1OC1OC(C)C(O)C(O)C1O (stereo not shown) [compound 271] |
| 29 RFU | 1306 RFU |  | CC(=O)N[C@H]1[C@H](OCCN)O[C@H](COS(=O)(=O)O)[C@@H](O[C@@H]2O[C@H](COS(=O)(=O)O)[C@H](O)[C@H](O)[C@H]2O)[C@@H]1O [compound 287] |
| 46 RFU |  |  | CC(=O)N[C@H]1[C@H](OCCCN)O[C@H](CO)[C@@H](O[C@@H]2O[C@H](CO)[C@H](O)[C@H](O[C@@H]3O[C@H](CO)[C@H](O)[C@H](O)[C@H]3O)[C@H]2O)[C@@H]1O [compound 291] |
| 30 RFU |  |  | CC(=O)N[C@H]1[C@H](OCCN)O[C@H](CO)[C@@H](O[C@@H]2O[C@H](CO[C@H]3O[C@H](CO)[C@@H](O[C@@H]4O[C@H](CO)[C@H](O)[C@H](O)[C@H]4O)[C@H](O)[C@H]3NC(C)=O)[C@H](O)[C@H](O)[C@H]2O)[C@@H]1O [compound 295] |
| 39 RFU | 5434 RFU |  | CC(=O)NC1C(OCCCN)OC(CO)C(O)C1OC1OC(C(=O)O)C(O)C(O)C1O (stereo not shown) [compound 299] |
| 42 RFU |  |  | CC(=O)NC1C(O)CC(OC2C(O)C(CO)OC(OC3C(NC(C)=O)C(OC4C(O)C(CO)OC(OC5C(NC(C)=O)C(OCCN)OC(CO)C5OC5OC(C)C(O)C(O)C5O)C4O)OC(CO)C3OC3OC(C)C(O)C(O)C3O)C2O)(C(=O)O)OC1C(O)C(O)CO (stereo not shown) [compound 326] |
| 41 RFU | 706 RFU | some binding | CC(=O)N[C@H]1[C@H](O[C@H]2[C@@H](O)[C@@H](CO)O[C@@H](O[C@H]3[C@H](O[C@@H]4O[C@@H](C)[C@@H](O)[C@@H](O)[C@@H]4O)[C@@H](NC(C)=O)[C@H](O[C@H]4[C@@H](O)[C@@H](CO)O[C@@H](O[C@H]5[C@H](O[C@@H]6O[C@@H](C)[C@@H](O)[C@@H](O)[C@@H]6O)[C@@H](NC(C)=O)[C@H](OCCN)O[C@@H]5CO)[C@@H]4O)O[C@@H]3CO)[C@@H]2O)O[C@H](CO)[C@@H](O[C@@H]2O[C@H](CO)[C@H](O[C@H]3O[C@H](CO)[C@@H](O)[C@H](O)[C@H]3NC(C)=O)[C@H](O)[C@H]2O)[C@@H]1O [compound 337] |
